Source: patent publication US11713335B2, “Aminocoumarin compounds and methods of their use” (President and Fellows of Harvard College, priority 2018, dated 2023)
In brackets after ≈: the same amount, converted by molar mass. Like-named read-outs stand apart in the source and are kept apart here.

What was measured:
Assay type in all cases: cell-based
E. coli 25922 = test: Minimal inhibitory concentration, E. coli 25922; conditions: read-out: MIC (μM) E. coli 25922
Description: (§1) General Procedure for Determination of Minimal Inhibitory Concentrations
(§2) Overnight cultures (5 mL) of bacterial strains were grown in LB media or TSA media (for S. aureus) at 37° C. and with shaking at 220 rpm until saturation. The overnight culture was diluted serially 1:100 (50 μL in 5 mL sterile media) and then 1:100 (250 μL in 25 mL sterile media). The 25 mL of diluted culture was then dispensed to a sterile 96 well plate (Corning #3370). 198 μL of culture were dispensed into row A and 100 μL of this culture were dispensed into rows B-H. Aminocoumarin compound (DMSO stock) were added to the first row and then the row was mixed by pipetting. 100 μL of culture from row A were transferred to row B and the serial dilution continued until the final 100 μL from row H were discarded. The plate was incubated without shaking in a 37° C. for 16 hours and then read by visible light spectrophotometer (Molecular Devices) at 600 nm. The minimal inhibitory concentration (MIC) was determined as the lowest concentration of compound concentration that inhibited the growth of bacteria.
(§3) The compounds of the invention were assessed for activities against the pathogens S. aureus RN4220 and MW2, E. cloacae 13047, A. baumannii 19606, K. pneumoniae 700721, E. coli MC4100, 25922. All activities are reported in micromolar (uM) and are 16 hour minimal inhibitory concentrations at 37° C. The assay is detailed in Example 11 and is titled “General Procedure for Determination of Minimal Inhibitory Concentrations.”

S. aureus RN4220 = test: Minimal inhibitory concentration, S. aureus RN4220; conditions: read-out: MIC (μM) S. aureus RN4220
Description: as §1, §2, §3

K. pneumoniae 700721 = test: Minimal inhibitory concentration, K. pneumoniae 700721; conditions: read-out: MIC (μM) K. pneumoniae 700721
Description: as §1, §2, §3

E. cloacae 13047 = test: Minimal inhibitory concentration, E. cloacae 13047; conditions: read-out: MIC (μM) E. cloacae 13047
Description: as §1, §2, §3

E. coli MC4100 = test: Minimal inhibitory concentration, E. coli MC4100; conditions: read-out: MIC (μM) E. coli MC4100 ara+
Description: as §1, §2, §3

A. baumannii 19606 = test: Minimal inhibitory concentration, A. baumannii 19606; conditions: read-out: MIC (μM) A. baumannii 19606
Description: as §1, §2, §3

S. aureus MW2 = test: Minimal inhibitory concentration, S. aureus MW2; conditions: read-out: MIC (μM) S. aureus MW2 (MRSA)
Description: as §1, §2, §3

[1] = Escherichia coli, 25922, 16 h, 16 hour minimal inhibitory concentration at 37° C.
[2] = Staphylococcus aureus, RN4220, 16 h, 16 hour minimal inhibitory concentration at 37° C.
[3] = Klebsiella pneumoniae, 700721, 16 hour minimal inhibitory concentration at 37° C.
[4] = Enterobacter cloacae, 13047, 16 hour minimal inhibitory concentration at 37° C.
[5] = Escherichia coli, MC4100, 16 h, 16 hour minimal inhibitory concentration at 37° C.
[6] = Acinetobacter baumannii, 19606, 16 h, 16 hour minimal inhibitory concentration at 37° C.
[7] = Staphylococcus aureus, MRSA, 16 h, 16 hour minimal inhibitory concentration at 37° C.
[8] = 16 hour minimal inhibitory concentration at 37° C.

Row | Compound | MIC (E. coli 25922; [1]) [µM] | MIC (S. aureus RN4220; [2]) [µM] | MIC (K. pneumoniae 700721; [3]) [µM] | MIC (E. cloacae 13047; [4]) [µM] | MIC (E. coli MC4100; [5]) [µM] | MIC (A. baumannii 19606; [6]) [µM] | MIC (S. aureus MW2; [7]) [µM] | other results
1 | CO[C@@H]1[C@@H](OC(N)=O)[C@@H](O)[C@H](Oc2ccc3c(O)c(NC(=O)c4cccc(Oc5ccc(F)cc5)c4)c(=O)oc3c2C)OC1(C)C [Compound 249] | < 1.56 | 20 (≈ 12.8 µg/mL) | 20 (≈ 12.8 µg/mL) | > 100 | 5 (≈ 3.19 µg/mL) | > 50 | 20 (≈ 12.8 µg/mL) | 
2 | CO[C@@H]1[C@@H](OC(N)=O)[C@@H](O)[C@H](Oc2ccc3c(O)c(NC(=O)c4ccc(O)c(C/C=C/CCC(=O)O)c4)c(=O)oc3c2C)OC1(C)C [Compound 203] | > 200 | > 100 | > 100 | > 100 | > 200 | > 50 | > 100 | 
3 | CO[C@@H]1[C@@H](OC(N)=O)[C@@H](O)[C@H](Oc2ccc3c(OCC4CO4)c(NC(=O)c4ccc(O)c(CC=C(C)C)c4)c(=O)oc3c2C)OC1(C)C (some centres unmarked) [Compound 217] | > 200 | 19 (≈ 12.7 µg/mL) | > 100 | > 100 | > 200 | > 50 | 9 (≈ 6.02 µg/mL) | 
4 | CCCNC(=O)O[C@H]1[C@H](Oc2ccc3c(O)c(NC(=O)c4ccc(O)c(CC=C(C)C)c4)c(=O)oc3c2C)OC(C)(C)[C@H](OC)[C@H]1O [Compound 109] |  |  |  |  |  |  |  | MIC (E. coli 25922; [8]): >200 µM; MIC (S. aureus RN4220; [8]): 1.53 µM (≈ 1 µg/mL); MIC (K. pneumoniae 700721; [8]): >100 µM; MIC (E. cloacae 13047; [8]): >100 µM; MIC (E. coli MC4100; [8]): >200 µM; MIC (A. baumannii 19606; [8]): 10 µM (≈ 6.55 µg/mL); MIC (S. aureus MW2; [8]): 1.53 µM (≈ 1 µg/mL)
5 | CO[C@@H]1[C@@H](OC(N)=O)[C@@H](O)[C@H](Oc2ccc3c(O)c(NC(=O)c4ccccc4Br)c(=O)oc3c2C)OC1(C)C [Compound 231] | > 200 | > 100 | > 100 | > 100 | > 200 | > 50 | > 100 | 
6 | CO[C@@H]1[C@@H](O)[C@@H](OC(=O)c2ccc[nH]2)[C@H](Oc2ccc3c(O)c(NC(=O)c4ccc(O)c(CC=C(C)C)c4)c(=O)oc3c2C)OC1(C)C [Compound 113] |  |  |  |  |  |  |  | MIC (E. coli 25922; [8]): >200 µM; MIC (S. aureus RN4220; [8]): 0.5 µM (≈ 0.331 µg/mL); MIC (K. pneumoniae 700721; [8]): >100 µM; MIC (E. cloacae 13047; [8]): >100 µM; MIC (E. coli MC4100; [8]): >200 µM; MIC (A. baumannii 19606; [8]): 2 µM (≈ 1.33 µg/mL); MIC (S. aureus MW2; [8]): 0.24 µM (≈ 0.159 µg/mL)
7 | CO[C@@H]1[C@@H](OC(N)=O)[C@@H](O)[C@H](Oc2ccc3c(O)c(NC(=O)OC(C)(C)C)c(=O)oc3c2C)OC1(C)C [Compound 209] | > 200 | > 100 | > 100 | > 100 | > 200 | > 50 | > 100 | 
8 | CO[C@@H]1[C@@H](OC(N)=O)[C@@H](O)[C@H](Oc2ccc3c(O)c(NC(C)=O)c(=O)oc3c2C)OC1(C)C [Compound 102] |  |  |  |  |  |  |  | MIC (E. coli 25922; [8]): >200 µM; MIC (S. aureus RN4220; [8]): >100 µM; MIC (K. pneumoniae 700721; [8]): >100 µM; MIC (E. cloacae 13047; [8]): >100 µM; MIC (E. coli MC4100; [8]): >200 µM; MIC (A. baumannii 19606; [8]): >50 µM; MIC (S. aureus MW2; [8]): >100 µM
9 | CO[C@@H]1[C@@H](OC(N)=O)[C@@H](O)[C@H](Oc2ccc3c(O)c(NC(=O)c4ccc5c(c4)oc4ccccc45)c(=O)oc3c2C)OC1(C)C [Compound 250] | > 200 | 10 (≈ 6.19 µg/mL) | > 100 | > 100 | > 100 | > 50 | 10 (≈ 6.19 µg/mL) | 
10 | CO[C@@H]1[C@@H](OC(N)=O)[C@@H](O)[C@H](Oc2ccc3c(O)c(NC(=O)c4ccc(F)c(Oc5ccccc5)c4)c(=O)oc3c2C)OC1(C)C [Compound 254] | 5 (≈ 3.19 µg/mL) | 10 (≈ 6.39 µg/mL) | 20 (≈ 12.8 µg/mL) | 79 (≈ 50.4 µg/mL) | 2.4 (≈ 1.53 µg/mL) | > 50 | 10 (≈ 6.39 µg/mL) | 
11 | CO[C@@H]1[C@@H](OC(=O)c2ccc(C)n2-c2ccccc2)[C@@H](O)[C@H](Oc2ccc3c(O)c(NC(=O)c4ccc(O)c(CC=C(C)C)c4)c(=O)oc3c2C)OC1(C)C [Compound 210] | > 200 | 33 (≈ 24.8 µg/mL) | > 100 | > 100 | > 200 | > 50 | 33 (≈ 24.8 µg/mL) | 
12 | CO[C@@H]1[C@@H](OC(N)=O)[C@@H](O)[C@H](Oc2ccc3c(O)c(NC(=O)c4cccc(CN)c4)c(=O)oc3c2C)OC1(C)C [Compound 206] | > 200 | > 100 | > 100 | > 100 | > 200 | > 50 | > 100 | 
13 | CO[C@@H]1[C@@H](OC(N)=O)[C@@H](O)[C@H](Oc2ccc3c(O)c(NC(=O)c4ccc(I)c(-c5ccccc5)c4)c(=O)oc3c2C)OC1(C)C [Compound 227] | 34 (≈ 24.8 µg/mL) | 4 (≈ 2.92 µg/mL) | 34 (≈ 24.8 µg/mL) | > 100 | 9 (≈ 6.57 µg/mL) | > 50 | 4 (≈ 2.92 µg/mL) | 
14 | CCCOCCOCC#Cc1ccc(C(=O)Nc2c(O)c3ccc(O[C@@H]4OC(C)(C)[C@H](OC)[C@@H](OC(N)=O)[C@H]4O)c(C)c3oc2=O)cc1 [Compound 226] | > 200 | > 100 | > 100 | > 100 | > 200 | > 50 | > 100 | 
15 | CO[C@@H]1[C@@H](OC(N)=O)[C@@H](O)[C@H](Oc2ccc3c(O)c(NC(=O)c4cccc(Oc5ccc(C#N)cc5)c4)c(=O)oc3c2C)OC1(C)C [Compound 242] | 154 (≈ 99.4 µg/mL) | > 100 | > 100 | > 100 | 153 (≈ 98.8 µg/mL) | > 50 | 77 (≈ 49.7 µg/mL) | 
16 | COc1cccc(Oc2cccc(C(=O)Nc3c(O)c4ccc(O[C@@H]5OC(C)(C)[C@H](OC)[C@@H](OC(N)=O)[C@H]5O)c(C)c4oc3=O)c2)c1 [Compound 240] | 38 (≈ 24.7 µg/mL) | 19.2 (≈ 12.5 µg/mL) | > 100 | > 100 | 4.5 (≈ 2.93 µg/mL) | > 50 | 19.2 (≈ 12.5 µg/mL) | 
17 | CO[C@@H]1[C@@H](O)[C@@H](OC(=O)c2cc(C)c(C)[nH]2)[C@H](Oc2ccc3c(O)c(NC(=O)c4ccc(O)c(CC=C(C)C)c4)c(=O)oc3c2C)OC1(C)C [Compound 214] |  |  |  |  |  |  |  | MIC (E. coli 25922; Escherichia coli, 25922, 16 h): > 200 µM; MIC (S. aureus RN4220; Staphylococcus aureus, RN4220, 16 h): 5 µM (≈ 3.45 µg/mL); MIC (K. pneumoniae 700721; Klebsiella pneumoniae, 700721, 16 h): > 100 µM; MIC (E. cloacae 13047; Enterobacter cloacae, 13047, 16 h): > 100 µM; MIC (E. coli MC4100; Escherichia coli, MC4100, 16 h): > 200 µM; MIC (A. baumannii 19606; Acinetobacter baumannii, 19606, 16 h): > 50 µM; MIC (S. aureus MW2; Staphylococcus aureus, MRSA, 16 h): 5 µM (≈ 3.45 µg/mL)
18 | C#Cc1cccc(C(=O)Nc2c(O)c3ccc(O[C@@H]4OC(C)(C)[C@H](OC)[C@@H](OC(N)=O)[C@H]4O)c(C)c3oc2=O)c1 [Compound 229] | > 200 | 90 (≈ 49.7 µg/mL) | > 100 | > 100 | > 200 | > 50 | 90 (≈ 49.7 µg/mL) | 
19 | CO[C@@H]1[C@@H](OC(N)=O)[C@@H](O)[C@H](Oc2ccc3c(O)c(NC(=O)c4ccnc(Oc5ccccc5)c4)c(=O)oc3c2C)OC1(C)C [Compound 237] | > 200 | > 100 | > 100 | > 100 | > 100 | > 50 | > 100 | 
20 | CO[C@@H]1[C@@H](OC(N)=O)[C@@H](O)[C@H](Oc2ccc3c(O)c(NC(=O)c4cccc(-c5ccc(Cl)c(Cl)c5)c4)c(=O)oc3c2C)OC1(C)C [Compound 222] | 37 (≈ 24.9 µg/mL) | 0.46 (≈ 0.31 µg/mL) | > 100 | > 100 | 37 (≈ 24.9 µg/mL) | 9 (≈ 6.06 µg/mL) | 0.23 (≈ 0.155 µg/mL) | 
